Where two headings read alike, the source gives them in different places.
What was measured:
[1] = tested on: p-IKKα levels in L363 (NIK translocated multiple myeloma) cells; experiment: Effect of compounds on p-IKKα levels in L363 cells (AlphaLISA SureFire Ultra); type: cell-based, human; conditions: BAFF stimulated, MG132, 6 h, average of values, read-out: Assay 2 IC50
How it was run: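 Inhibition of p-IKKα (Ser176/180) read by AlphaLISA after 6 h, 37 °C compound exposure (11-point 1:3 series, 0.3% DMSO) of L363 cells pre-incubated overnight ± 250 ng/ml BAFF and plated ± BAFF ± 10 μM MG132. Normalised to BAFF/MG132/DMSO and unstimulated controls; IC50 by sigmoidal fitting, duplicates.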

[2] = target: recombinant human NF-kappaB-inducing kinase (NIK/MAP3K14) (Homo sapiens (Human), UniProt Q99558); experiment: Inhibition of auto-phosphorylation of recombinant human NIK/MAP3K14 (AlphaScreen); type: biochemical; conditions: NIK auto-phosphorylation, 5 μM ATP, 1 nM NIK, 2 h at 25° C.; average of values
recombinant human NF-kappaB-inducing kinase (NIK/MAP3K14), sequence (Q99558 whole entry): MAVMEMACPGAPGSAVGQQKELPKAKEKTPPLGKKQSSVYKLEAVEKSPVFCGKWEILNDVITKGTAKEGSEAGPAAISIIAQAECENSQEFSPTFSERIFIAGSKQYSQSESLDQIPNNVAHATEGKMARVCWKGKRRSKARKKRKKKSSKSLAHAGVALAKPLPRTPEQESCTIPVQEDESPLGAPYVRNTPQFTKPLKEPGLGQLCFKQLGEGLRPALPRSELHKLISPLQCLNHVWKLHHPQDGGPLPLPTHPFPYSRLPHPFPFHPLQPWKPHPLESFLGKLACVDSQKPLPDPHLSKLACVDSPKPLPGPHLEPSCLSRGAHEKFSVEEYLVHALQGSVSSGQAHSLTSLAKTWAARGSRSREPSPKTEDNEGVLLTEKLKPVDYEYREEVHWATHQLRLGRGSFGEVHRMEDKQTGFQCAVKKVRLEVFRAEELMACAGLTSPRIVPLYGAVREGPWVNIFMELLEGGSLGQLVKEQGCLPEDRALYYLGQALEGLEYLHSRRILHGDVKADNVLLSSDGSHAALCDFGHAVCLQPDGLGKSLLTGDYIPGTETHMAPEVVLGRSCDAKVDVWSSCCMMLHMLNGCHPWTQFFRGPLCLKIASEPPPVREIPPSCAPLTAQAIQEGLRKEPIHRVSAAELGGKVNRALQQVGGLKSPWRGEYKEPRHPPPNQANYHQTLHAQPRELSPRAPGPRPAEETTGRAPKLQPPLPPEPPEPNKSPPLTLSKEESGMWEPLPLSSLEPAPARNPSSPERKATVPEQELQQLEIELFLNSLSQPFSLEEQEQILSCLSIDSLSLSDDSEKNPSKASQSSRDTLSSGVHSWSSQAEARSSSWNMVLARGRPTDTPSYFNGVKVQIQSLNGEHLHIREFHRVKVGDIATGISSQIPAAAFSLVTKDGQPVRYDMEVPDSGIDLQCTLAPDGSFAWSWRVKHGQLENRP
How it was run: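 AlphaScreen read-out (anti-phospho-IKK Ser176/180 antibody, Protein A acceptor and glutathione donor beads) of NIK auto-phosphorylation. Reaction: 1 nM enzyme, 5 μM ATP, Tris pH 7.5 buffer with Mg2+ and vanadate, 2 h at 25° C., final DMSO 0.7%. IC50 came from a sigmoidal curve fit.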

SMILES	IC50 ([1]; Homo sapiens, L-363, 6 h) [µM]	IC50 [2] [µM]	IC50 [1] [µM]
Cc1nc(N)c2nc(-c3cccc(C#C[C@@](C)(O)c4ccccn4)c3)ccc2n1 [Example 190, (R)-4-[3-(4-Amino-2-methyl-pyrido[3,2-d]pyrimidin-6-yl)phenyl]-2-(2-pyridyl)but-3-yn-2-ol]	> 5	1.83	
CN1CC[C@@](O)(C#Cc2cccc(-c3cc(C(F)(F)F)c4ncnc(N)c4c3)c2)C1=O [Example 115, (R)-3-((3-(4-Amino-8-(trifluoromethyl)quinazolin-6-yl)phenyl)ethynyl)-3-hydroxy-1-methylpyrrolidin-2-one]	0.042	≤ 0.0005	
Nc1nccc2cnc(-c3cccc(C#C[C@]4(O)CCc5cccnc54)c3)nc12 [Example 45, (R)-7-[2-[3-(8-Aminopyrido[3,4-d]pyrimidin-2-yl)phenyl]ethynyl]-5,6-dihydrocyclopenta[b]pyridin-7-ol]	0.017	≤ 0.0005	
Cc1nnc([C@](C)(O)C#Cc2ccc(C)c(-c3ccc4ccnc(N)c4c3)c2)o1 [Example 78, (R)-4-[3-(1-Amino-7-isoquinolyl)-4-methyl-phenyl]-2-(5-methyl-1,3,4-oxadiazol-2-yl)but-3-yn-2-ol]	> 5	0.84	
CN1CC[C@@](O)(C#Cc2cccc(-c3ncc4c(C(=O)Oc5ccccc5)cnc(N)c4n3)c2)C1=O [Example 128, (R)-Phenyl 8-amino-2-[3-[2-(3-hydroxy-1-methyl-2-oxo-pyrrolidin-3-yl)ethynyl]phenyl]pyrido[3,4-d]pyrimidine-5-carboxylate]	0.028	0.0006	
[2H]c1nc(N)c2nc(-c3cccc(C#C[C@@]4(O)C(=O)N(C)[C@@H]5C[C@@H]54)c3)ccc2n1 [Example 276, (1R,4R,5S)-4-((3-(4-Aminopyrido[3,2-d]pyrimidin-6-yl-2-d)phenyl)ethynyl)-4-hydroxy-2-methyl-2-azabicyclo[3.1.0]hexan-3-one]	0.0089	≤ 0.0005	
CN1CCC(O)(C#Cc2cccc(-c3ncc4ccnc(N5CCC5)c4n3)c2)C1=O (stereo in doubt) [Example 248, (S)-3-((3-(8-(Azetidin-1-yl)pyrido[3,4-d]pyrimidin-2-yl)phenyl)ethynyl)-3-hydroxy-1-methylpyrrolidin-2-one]		3.34	> 5
Cc1cc([C@](C)(O)C#Cc2ccc(C)c(-c3ccc4ccnc(N)c4c3)c2)no1 [Example 79, (R)-4-[3-(1-Amino-7-isoquinolyl)-4-methyl-phenyl]-2-(5-methylisoxazol-3-yl)but-3-yn-2-ol]	> 5	0.59	
CN1CC[C@@](O)(C#Cc2cccc(-c3ccc4ncnc(NC5COC5)c4n3)c2)C1=O [Example 229, (R)-3-Hydroxy-1-methyl-3-((3-(4-(oxetan-3-ylamino)pyrido[3,2-d]pyrimidin-6-yl)phenyl)ethynyl)pyrrolidin-2-one]	1.91	0.11	
CN1CC[C@@](O)(C#Cc2cccc(-c3ccc4ncnc(C5CC5)c4n3)c2)C1=O [Example 270, (R)-3-((3-(4-Cyclopropylpyrido[3,2-d]pyrimidin-6-yl)phenyl)ethynyl)-3-hydroxy-1-methylpyrrolidin-2-one]	1	0.026	
[2H]C([2H])([2H])N1CCC(O)(C#Cc2cccc(-c3ncc4ccnc(N)c4n3)c2)C1=O (stereo in doubt) [Example 67, (S)-3-[2-[3-(8-Aminopyrido[3,4-d]pyrimidin-2-yl)phenyl]ethynyl]-3-hydroxy-1-(trideuteriomethyl)pyrrolidin-2-one]	0.35	0.011	
Cc1nc(N)c2nc(-c3cccc(C#C[C@](C)(O)c4ncccn4)c3)ccc2n1 [Example 198, (S)-4-[3-(4-Amino-2-methyl-pyrido[3,2-d]pyrimidin-6-yl)phenyl]-2-pyrimidin-2-yl-but-3-yn-2-ol]	> 5	1.31	
CN1CC[C@@](O)(C#Cc2cccc(-c3ccc4nc(C5CC5)nc(N)c4n3)c2)C1=O [Example 175, (R)-3-((3-(4-Amino-2-cyclopropylpyrido[3,2-d]pyrimidin-6-yl)phenyl)ethynyl)-3-hydroxy-1-methylpyrrolidin-2-one]	0.23	0.0024	
[2H]C([2H])([2H])N1CC[C@@](O)(C#Cc2cccc(-c3ccc4nc(CF)nc(N)c4n3)c2)C1=O [Example 208, (R)-3-((3-(4-Amino-2-(fluoromethyl)pyrido[3,2-d]pyrimidin-6-yl)phenyl)ethynyl)-3-hydroxy-1-(methyl-d3)pyrrolidin-2-one]	0.012	≤ 0.0005	
CC1(C)CC[C@@](O)(C#Cc2cccc(-c3ccc4ncnc(N)c4n3)c2)C1=O [Example 131, (R)-2-[2-[3-(4-Aminopyrido[3,2-d]pyrimidin-6-yl)phenyl]ethynyl]-2-hydroxy-5,5-dimethyl-cyclopentanone]	0.047	≤ 0.0005	
CN1CC[C@@](O)(C#Cc2cccc(-c3cc(-n4cccn4)c4ncnc(N)c4n3)c2)C1=O [Example 303, (R)-3-[2-[3-(4-Amino-8-pyrazol-1-yl-pyrido[3,2-d]pyrimidin-6-yl)phenyl]ethynyl]-3-hydroxy-1-methyl-pyrrolidin-2-one]	0.011	0.0009	
Cc1ccc(C#C[C@]2(O)CCc3cccnc32)cc1-c1ccc2ccnc(N)c2c1 [Example 80, (R)-7-[2-[3-(1-Amino-7-isoquinolyl)-4-methyl-phenyl]ethynyl]-5,6-dihydrocyclopenta[b]pyridin-7-ol]	4	0.028	
CN1CC[C@@](O)(C#Cc2cccc(-c3nc4c(N)ncnc4o3)c2)C1=O [Example 142, (R)-3-((3-(7-Aminooxazolo[5,4-d]pyrimidin-2-yl)phenyl)ethynyl)-3-hydroxy-1-methylpyrrolidin-2-one]	> 5	0.35	
CN1CC[C@@](O)(C#Cc2cccc(-c3ncc4c(C#N)cnc(N)c4n3)c2)C1=O [Example 100, (R)-8-Amino-2-(3-((3-hydroxy-1-methyl-2-oxopyrrolidin-3-yl)ethynyl)phenyl)pyrido[3,4-d]pyrimidine-5-carbonitrile]	0.0061	≤ 0.0005	
Cc1nnc([C@](C)(O)C#Cc2cccc(-c3ccc4ccnc(N)c4n3)c2)o1 [Example 88, (R)-4-[3-(8-Amino-1,7-naphthyridin-2-yl)phenyl]-2-(5-methyl-1,3,4-oxadiazol-2-yl)but-3-yn-2-ol]	0.4	0.0047	
Nc1ncnc2cnc(-c3cccc(C#C[C@]4(O)CCc5cccnc54)c3)nc12 [Example 144, (R)-7-((3-(8-Aminopyrimido[5,4-d]pyrimidin-2-yl)phenyl)ethynyl)-6,7-dihydro-5H-cyclopenta[b]pyridin-7-ol]	> 5	2.29	
C=CCN1CCC(O)(C#Cc2cccc(-c3ccc4nc(C)nc(N)c4n3)c2)C1=O (racemic) [Example 195, racemic-1-Allyl-3-((3-(4-amino-2-methylpyrido[3,2-d]pyrimidin-6-yl)phenyl)ethynyl)-3-hydroxypyrrolidin-2-one]	1.13	0.021	
CC(C)(O)C#Cc1cccc(-c2ncc3ccnc(N)c3n2)c1 [Example 35, 4-[3-(8-Aminopyrido[3,4-d]pyrimidin-2-yl)phenyl]-2-methyl-but-3-yn-2-ol]	0.7	0.015	
CN1CC[C@@](O)(C#Cc2cccc(-c3ncc4c(-c5cnn(C)c5)cnc(N)c4n3)c2)C1=O [Example 122, (R)-3-[2-[3-[8-Amino-5-(1-methylpyrazol-4-yl)pyrido[3,4-d]pyrimidin-2-yl]phenyl]ethynyl]-3-hydroxy-1-methyl-pyrrolidin-2-one]	0.0023	≤ 0.0005	
CN1CC[C@@](O)(C#Cc2cccc(-c3cc(C4CCN4)c4ncnc(N)c4n3)c2)C1=O (stereo partly drawn) [Example 313, (3R)-3-((3-(4-Amino-8-(azetidin-2-yl)pyrido[3,2-d]pyrimidin-6-yl-2-d)phenyl)ethynyl)-3-hydroxy-1-methylpyrrolidin-2-one]		0.0031	0.231
Cc1cnc(N)c2nc(-c3cccc(C#C[C@]4(O)CCN(C)C4=O)c3)ncc12 [Example 39, (R)-3-((3-(8-Amino-5-methylpyrido[3,4-d]pyrimidin-2-yl)phenyl)ethynyl)-3-hydroxy-1-methylpyrrolidin-2-one]	0.009	≤ 0.0005	
Cc1nc(N)c2nc(-c3cccc(C#C[C@@]4(O)C(=O)N(C)C[C@@H]4C)c3)ccc2n1 (stereo in doubt) [Example 291, (3R,4S*)-3-((3-(4-Amino-2-methylpyrido[3,2-d]pyrimidin-6-yl)phenyl)ethynyl)-3-hydroxy-1,4-dimethylpyrrolidin-2-one]	1.39	0.054	
CN1CC[C@@](O)(C#Cc2cccc(-c3ccc4nc(C(F)(F)F)nc(N)c4n3)c2)C1=O [Example 176, (R)-3-((3-(4-Amino-2-(trifluoromethyl)pyrido[3,2-d]pyrimidin-6-yl)phenyl)ethynyl)-3-hydroxy-1-methylpyrrolidin-2-one]	0.081	0.0014	
CN1CC[C@@](O)(C#Cc2cccc(-c3ccc4ncnc(N(C)C)c4n3)c2)C1=O [Example 25, (R)-3-((3-(4-(Dimethylamino)pyrido[3,2-d]pyrimidin-6-yl)phenyl)ethynyl)-3-hydroxy-1-methylpyrrolidin-2-one]	0.18	0.0021	

Source: patent publication US20240199605A1, “SMALL MOLECULAR INHIBITORS OF NF-kB INDUCING KINASE” (Janssen Pharmaceutica NV, priority 2019, published 2024)
